Data from ChEMBL document CHEMBL3885881, “DrugMatrix”.

Species on record: Rattus norvegicus
Assay: DrugMatrix - Regimen: Daily Repeat
Assay type: toxicity, organism-based, Sprague-Dawley
Set-up: regimen Daily Repeat, gender Male, age 6-8 weeks
Conditions: in vivo, iv, vehicle 100 % SALINE; for ABSOLUTE BASOPHIL / ABSOLUTE EOSINOPHIL / ABSOLUTE LYMPHOCYTE / ABSOLUTE MONOCYTE / ABSOLUTE SEGMENTED NEUTROPHIL / BASOPHIL / EOSINOPHIL / ERYTHROCYTE COUNT / HEMATOCRIT / HEMOGLOBIN / LEUKOCYTE COUNT / LYMPHOCYTE / MEAN CORPUSCULAR HEMOGLOBIN / MEAN CORPUSCULAR HEMOGLOBIN CONCENTRATION / MEAN CORPUSCULAR VOLUME / MONOCYTE / NEUTROPHIL / NUCLEATED RED BLOOD CELLS / PLATELET COUNT: tissue Blood
[1] = 0 mg/kg, 72 h, dose level Control, time 3 day
[2] = 0 mg/kg, 72 h, tissue Plasma, dose level Control, time 3 day
[3] = 0 mg/kg, 120 h, dose level Control, time 5 day
[4] = 0 mg/kg, 120 h, tissue Plasma, dose level Control, time 5 day
[5] = […], 72 h, dose 0.56 mg/Kg, dose level High, time 3 day
[6] = […], 72 h, tissue Plasma, dose 0.56 mg/Kg, dose level High, time 3 day
[7] = […], 120 h, dose 0.56 mg/Kg, dose level High, time 5 day
[8] = […], 120 h, tissue Plasma, dose 0.56 mg/Kg, dose level High, time 5 day

INSULIN HUMAN
ABSOLUTE BASOPHIL [1]: 0 CELLS/uL | ABSOLUTE EOSINOPHIL [1]: 46.17 CELLS/uL | ABSOLUTE LYMPHOCYTE [1]: 9089 CELLS/uL | ABSOLUTE MONOCYTE [1]: 242 CELLS/uL | ABSOLUTE SEGMENTED NEUTROPHIL [1]: 856.17 CELLS/uL | BASOPHIL [1]: 0% | EOSINOPHIL [1]: 0.5% | ERYTHROCYTE COUNT [1]: 5.1 x10E6/uL | HEMATOCRIT [1]: 32.5% | HEMOGLOBIN [1]: 12.35 G/DL | LEUKOCYTE COUNT [1]: 10.23 x10E3/uL | LYMPHOCYTE [1]: 88.5% | MEAN CORPUSCULAR HEMOGLOBIN [1]: 24.18 pg | MEAN CORPUSCULAR HEMOGLOBIN CONCENTRATION [1]: 38 G/DL | MEAN CORPUSCULAR VOLUME [1]: 63.62 fL | MONOCYTE [1]: 2.5% | NEUTROPHIL [1]: 8.5% | NUCLEATED RED BLOOD CELLS [1]: 0.17 /100WBC | PLATELET COUNT [1]: 1038.67 x10E3/uL | ALANINE AMINOTRANSFERASE [2]: 51.33 u/L | ALBUMIN [2]: 3.9 G/DL | ALKALINE PHOSPHATASE [2]: 409.33 u/L | ASPARTATE AMINOTRANSFERASE [2]: 91.67 u/L | CHLORIDE [2]: 97.83 MEQ/L | CHOLESTEROL [2]: 79.33 mg/dL | CREATINE PHOSPHOKINASE [2]: 628.67 u/L | CREATININE [2]: 0.21 mg/dL | LACTATE DEHYDROGENASE [2]: 120.33 u/L | PHOSPHORUS [2]: 10.48 mg/dL | POTASSIUM [2]: 5.83 MEQ/L | TOTAL BILIRUBIN [2]: 0.2 mg/dL | TOTAL PROTEIN [2]: 6.15 G/DL | URIC ACID [2]: 0.45 mg/dL | ABSOLUTE BASOPHIL [3]: 0 CELLS/uL | ABSOLUTE EOSINOPHIL [3]: 12.17 CELLS/uL | ABSOLUTE LYMPHOCYTE [3]: 10388 CELLS/uL | ABSOLUTE MONOCYTE [3]: 140.17 CELLS/uL | ABSOLUTE SEGMENTED NEUTROPHIL [3]: 1576.33 CELLS/uL | BASOPHIL [3]: 0% | EOSINOPHIL [3]: 0.17% | ERYTHROCYTE COUNT [3]: 5.71 x10E6/uL | HEMATOCRIT [3]: 35.57% | LEUKOCYTE COUNT [3]: 12.12 x10E3/uL | LYMPHOCYTE [3]: 85.83% | MEAN CORPUSCULAR HEMOGLOBIN [3]: 23.53 pg | MEAN CORPUSCULAR HEMOGLOBIN CONCENTRATION [3]: 37.73 G/DL | MONOCYTE [3]: 1% | NEUTROPHIL [3]: 13% | NUCLEATED RED BLOOD CELLS [3]: 0.33 /100WBC | PLATELET COUNT [3]: 1347.67 x10E3/uL | ALANINE AMINOTRANSFERASE [4]: 47.83 u/L | ALKALINE PHOSPHATASE [4]: 380 u/L | ASPARTATE AMINOTRANSFERASE [4]: 81.17 u/L | BLOOD UREA NITROGEN [4]: 14.67 mg/dL | CARBON DIOXIDE [4]: 36.17 mmol/L | CHLORIDE [4]: 98.17 MEQ/L | CHOLESTEROL [4]: 69.33 mg/dL | CREATINE PHOSPHOKINASE [4]: 547.17 u/L | CREATININE [4]: 0.28 mg/dL | GLUCOSE [4]: 140.5 mg/dL | LACTATE DEHYDROGENASE [4]: 153.83 u/L | LIPASE [4]: 7.83 u/L | POTASSIUM [4]: 5.86 MEQ/L | TOTAL BILIRUBIN [4]: 0.17 mg/dL | TOTAL PROTEIN [4]: 6.33 G/DL | URIC ACID [4]: 0.68 mg/dL | ABSOLUTE BASOPHIL [5]: 0 CELLS/uL | ABSOLUTE EOSINOPHIL [5]: 0 CELLS/uL | ABSOLUTE LYMPHOCYTE [5]: 9557.33 CELLS/uL | ABSOLUTE MONOCYTE [5]: 233.33 CELLS/uL | ABSOLUTE SEGMENTED NEUTROPHIL [5]: 942.67 CELLS/uL | BASOPHIL [5]: 0% | EOSINOPHIL [5]: 0% | ERYTHROCYTE COUNT [5]: 5.18 x10E6/uL | HEMATOCRIT [5]: 33.13% | HEMOGLOBIN [5]: 12.73 G/DL | LEUKOCYTE COUNT [5]: 10.73 x10E3/uL | LYMPHOCYTE [5]: 89.33% | MEAN CORPUSCULAR HEMOGLOBIN [5]: 24.6 pg | MEAN CORPUSCULAR HEMOGLOBIN CONCENTRATION [5]: 38.43 G/DL | MEAN CORPUSCULAR VOLUME [5]: 64 fL | MONOCYTE [5]: 2% | NUCLEATED RED BLOOD CELLS [5]: 0.33 /100WBC | PLATELET COUNT [5]: 1173.33 x10E3/uL | ALANINE AMINOTRANSFERASE [6]: 50.67 u/L | ALBUMIN [6]: 3.9 G/DL | ALKALINE PHOSPHATASE [6]: 425.67 u/L | ASPARTATE AMINOTRANSFERASE [6]: 87.67 u/L | BLOOD UREA NITROGEN [6]: 16 mg/dL | CARBON DIOXIDE [6]: 29.33 mmol/L | CHLORIDE [6]: 98 MEQ/L | CHOLESTEROL [6]: 73.33 mg/dL | CREATINE PHOSPHOKINASE [6]: 247.67 u/L | CREATININE [6]: 0.2 mg/dL | GLUCOSE [6]: 158.67 mg/dL | LACTATE DEHYDROGENASE [6]: 90.33 u/L | LIPASE [6]: 12 u/L | POTASSIUM [6]: 5.04 MEQ/L | SODIUM [6]: 140.73 MEQ/L | TOTAL BILIRUBIN [6]: 0.17 mg/dL | TOTAL PROTEIN [6]: 6.1 G/DL | URIC ACID [6]: 0.33 mg/dL | ABSOLUTE BASOPHIL [7]: 0 CELLS/uL | ABSOLUTE EOSINOPHIL [7]: 0 CELLS/uL | ABSOLUTE LYMPHOCYTE [7]: 9972 CELLS/uL | ABSOLUTE MONOCYTE [7]: 151.33 CELLS/uL | ABSOLUTE SEGMENTED NEUTROPHIL [7]: 1610 CELLS/uL | BASOPHIL [7]: 0% | EOSINOPHIL [7]: 0% | ERYTHROCYTE COUNT [7]: 5.32 x10E6/uL | HEMATOCRIT [7]: 33.67% | LEUKOCYTE COUNT [7]: 11.73 x10E3/uL | LYMPHOCYTE [7]: 85% | MEAN CORPUSCULAR HEMOGLOBIN [7]: 24.17 pg | MEAN CORPUSCULAR HEMOGLOBIN CONCENTRATION [7]: 38.23 G/DL | NEUTROPHIL [7]: 13.67% | NUCLEATED RED BLOOD CELLS [7]: 0.33 /100WBC | PLATELET COUNT [7]: 1293.67 x10E3/uL | ALANINE AMINOTRANSFERASE [8]: 53.33 u/L | ALKALINE PHOSPHATASE [8]: 426 u/L | ASPARTATE AMINOTRANSFERASE [8]: 73 u/L | BLOOD UREA NITROGEN [8]: 14.67 mg/dL | CARBON DIOXIDE [8]: 34.67 mmol/L | CHLORIDE [8]: 98 MEQ/L | CREATINE PHOSPHOKINASE [8]: 305 u/L | CREATININE [8]: 0.27 mg/dL | GLUCOSE [8]: 134.67 mg/dL | LACTATE DEHYDROGENASE [8]: 124.33 u/L | LIPASE [8]: 7.67 u/L | PHOSPHORUS [8]: 10.33 mg/dL | POTASSIUM [8]: 5.91 MEQ/L | TOTAL BILIRUBIN [8]: 0.2 mg/dL | TOTAL PROTEIN [8]: 6.23 G/DL | URIC ACID [8]: 0.6 mg/dL
